Source: patent US20240228925A1, “APPARATUS AND METHOD FOR A […] ALVEOLAR LUNG-ON-A-CHIP MODEL” (priority 2021, published 2024)

Test system: SARS-COV-2 pseudoviral particle (pCoV-VP)
Format: cell-based

In the case of `CCN(CC)Cc1cc(Nc2ccnc3cc(Cl)ccc23)ccc1O` [amodiaquine], the “decrease of cytopathic effects of pCoV-VPs (MTS assay)” value (“decrease” below) is reported as “approximately 21.4%”.
For `CCN(CCO)CCCC(C)Nc1ccnc2cc(Cl)ccc12` (stereo not drawn) [hydroxychloroquine], the “decrease” value was ~11.3%.
With `CCC(CC)COC(=O)[C@H](C)N[P@](=O)(OC[C@H]1O[C@@](C#N)(c2ccc3c(N)ncnn23)[C@H](O)[C@@H]1O)Oc1ccccc1` [remdesivir] the “decrease” value was ~30.0%.
